Source: patent publication US12590100B2, “Tetrahydro-spiroindoline-pyrrolopyrrole-triones inhibitors of the NRF2-β-TrCP interaction for use in the treatment of fatty liver disease” (Universidad Autonoma De Madrid, priority 2021, dated 2026)
“Also recorded” adds a separate entry of the source.

Legend:
cell viability = experiment: MTT assay of cell viability/toxicity; type: cell-based; conditions: all doses used
[1] = HPLC-MS detection of PHAR in liver after IP injection; type: in vivo, mouse; conditions: mice, single IP 50 mg/kg, 120 min
Description: FIG. 9. PHAR activates NRF2 and HO-1 in liver. A), UV and MS spectrum derived from the HPLC-MS analysis of PHAR dissolved in methanol for the identification of peaks associated with the compound. A blue rectangle surrounds the mass associated with PHAR. (B-D), the mice were treated with the vehicle (Tween-80+PBS, 1:13), 50 mg/kg of PHAR, or 50 mg/kg of SFN (saline) as a positive control by means of intraperitoneal (IP) injection for 2 hours. B), HPLC-MS UV and MS spectra derived from representative liver samples of both experimental groups used for determining PHAR levels in the liver 120 min after a single IP injection of 50 mg/kg. A blue rectangle surrounds the mass associated with PHAR. C), representative immunoblots showing NRF2, HO1, and LAMINB protein levels as the liver extract loading control. D), densitometric analysis of NRF2 protein levels of the representative immunoblots shown in (C), expressed as a ratio of NRF2/LAMINB. Statistical analysis was performed with one-way ANOVA followed by the Bonferroni test to compare inter-group differences. ***p<0.001 vs. vehicle. […] F), densitometric analysis of NRF2 and HO1 protein levels in the liver tissue of the representative immunoblots shown in (E), expressed as a ratio of NRF2/LAMINB or HO1/LAMINB levels. […]
Once the mechanism of action of PHAR was deciphered, the capacity thereof to induce NRF2 levels in a murine model was evaluated. […]

β-TrCP1 and β-TrCP2 = experiment: NRF2/HO-1 induction after lentiviral silencing of β-TrCP1/2 in Keap1−/− MEFs; type: cell-based, mouse
Description: In vitro kinase assay and in vitro ubiquitination. For the recognition and degradation of NRF2 by βTrCP, the serines 335, 338, 342 and 347 located at the Neh6 domain of NRF2 need to be previously phosphorylated by the kinase GSK-3β (FIG. 1). Therefore, to obtain the phosphorylated substrate, 20 ng recombinant NRF2-DETGE was used together with 0.5 μg of recombinant GSK-3β incubated at 30° C. for 60 min. The result was analyzed by western blot. After confirming the existence of phosphorylation in the residues of interest, an in vitro ubiquitination assay was carried out using the recombinant proteins that make up the E3 ubiquitin ligase complex. The ubiquitination reaction was carried out using: ATP (2 mM), […], SCF-βTrCP (450 nM), and non-phosphorylated or phosphorylated NRF2 (20 ng), in a specific ubiquitination buffer (30 mM Tris pH 7.6, 5 mM MgCl2, 2 mM dithiothreitol, 100 mM NaCl). Before the ubiquitination reactions, the E1, Cdc34b, and ubiquitin components were incubated together for 2 min to allow the E2 thioester bond to form. The reactions were incubated for 1 hour at 25° C. in the presence or absence of PHAR (3 μM) in order to determine whether or not PHAR inhibits ubiquitination by βTrCP. […] The PI3K/AKT signaling pathway is inhibited, and therefore GSK-3β is activated with the PI3K inhibitor, LY294002. As a result, NRF2 is phosphorylated by GSK-3β and marked for degradation by means of interaction with β-TrCP. Therefore, if PHAR is capable of inhibiting βTrCP-NRF2 interaction, the NRF2 levels will remain stable independently of the activation and phosphorylation by GSK-3β. The obtained result corroborates this. • 3. Using lentiviral silencing of the two isoforms described for β-TrCP (β-TrCP1 and β-TrCP2) in MEFs originating from Keap1 knockout mice (Keap′1−/−).
FIG. 6. PHAR increases NRF2 protein levels in a β-TrCP-dependent manner. A) In vitro phosphorylation of recombinant NRF2-DETGE by recombinant GSK-3β. Phosphorylation at residues 335, 338, 342 and 347 was analyzed by western blot. B) In vitro ubiquitination of NRF2 or pNRF2 by the βTrCP complex. NRF2 and pNRF2 (20 ng) were incubated at 25° C. for 1 h with purified ubiquitin, E1/cdc34b, βTrCP/Skp1 and Cull/Rbx1 as indicated in the presence or absence of PHAR […] or vehicle (DMSO). Polyubiquitinated NRF2 was detected by western blot with anti-ubiquitin antibody. […] E), densitometric analysis of NRF2 protein levels of the representative immunoblot of (D), expressed as a ratio of NRF2/GAPDH. […] G), densitometric analysis of NRF2 and HO1 protein levels of the representative immunoblots of (F), expressed as a ratio of NRF2 and HO1/GAPDH. […]

O=C1[C@@H]2[C@H](Cc3c[nH]c4ccccc34)N[C@]3(C(=O)Nc4ccc(Cl)cc43)[C@@H]2C(=O)N1c1ccc2c(c1)OCCO2 [PHAR]
toxicity (cell viability, MTT) (cell viability): does not present toxicity at any of the doses used
presence of PHAR in liver tissue (HPLC-MS) [1]: corresponded with the presence of the compound
HO-1 accumulation in sh β-TrCP1/2 cells compared with shCTRL (β-TrCP1 and β-TrCP2; PHAR 10 μM): considerably lower; also recorded: lower in cells lacking β-TrCP1/2
Hmox1 and Nqo1 mRNA induction in sh β-TrCP1/2 cells (β-TrCP1 and β-TrCP2; PHAR 10 μM): induction generated by PHAR is lost
NRF2 levels in shCTRL cells (β-TrCP1 and β-TrCP2; PHAR 10 μM, 2, 4, 8 h): increase in NRF2 levels from 2 h to 8 h
NRF2 accumulation in sh β-TrCP1/2 cells compared with shCTRL (β-TrCP1 and β-TrCP2; silencing about 50%, PHAR 10 μM): considerably lower; also recorded: significantly lower compared with shCTRL cells
